Key:
[1] = molecular target: Synaptic vesicular amine transporter (Rattus norvegicus, UniProt Q01827); type: functional
[2] = molecular target: T1, Alpha-1A adrenergic receptor (Homo sapiens, UniProt P35348)
T1 sequence (P35348 whole entry): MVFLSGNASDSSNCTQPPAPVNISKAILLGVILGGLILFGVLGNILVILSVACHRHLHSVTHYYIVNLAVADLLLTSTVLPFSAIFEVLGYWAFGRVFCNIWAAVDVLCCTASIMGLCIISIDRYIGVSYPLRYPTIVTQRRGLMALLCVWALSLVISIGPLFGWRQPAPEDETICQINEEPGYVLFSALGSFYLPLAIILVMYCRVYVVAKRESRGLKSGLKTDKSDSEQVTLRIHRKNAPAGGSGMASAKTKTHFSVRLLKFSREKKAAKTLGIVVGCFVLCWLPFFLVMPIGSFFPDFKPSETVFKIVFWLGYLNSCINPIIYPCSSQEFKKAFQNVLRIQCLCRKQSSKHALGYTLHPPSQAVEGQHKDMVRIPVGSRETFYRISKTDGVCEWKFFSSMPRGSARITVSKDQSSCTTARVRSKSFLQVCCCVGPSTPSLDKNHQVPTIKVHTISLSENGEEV

Estrogen receptor = molecular target: T2, Estrogen receptor (Homo sapiens, UniProt P03372); type: functional
T2 sequence (P03372 whole entry): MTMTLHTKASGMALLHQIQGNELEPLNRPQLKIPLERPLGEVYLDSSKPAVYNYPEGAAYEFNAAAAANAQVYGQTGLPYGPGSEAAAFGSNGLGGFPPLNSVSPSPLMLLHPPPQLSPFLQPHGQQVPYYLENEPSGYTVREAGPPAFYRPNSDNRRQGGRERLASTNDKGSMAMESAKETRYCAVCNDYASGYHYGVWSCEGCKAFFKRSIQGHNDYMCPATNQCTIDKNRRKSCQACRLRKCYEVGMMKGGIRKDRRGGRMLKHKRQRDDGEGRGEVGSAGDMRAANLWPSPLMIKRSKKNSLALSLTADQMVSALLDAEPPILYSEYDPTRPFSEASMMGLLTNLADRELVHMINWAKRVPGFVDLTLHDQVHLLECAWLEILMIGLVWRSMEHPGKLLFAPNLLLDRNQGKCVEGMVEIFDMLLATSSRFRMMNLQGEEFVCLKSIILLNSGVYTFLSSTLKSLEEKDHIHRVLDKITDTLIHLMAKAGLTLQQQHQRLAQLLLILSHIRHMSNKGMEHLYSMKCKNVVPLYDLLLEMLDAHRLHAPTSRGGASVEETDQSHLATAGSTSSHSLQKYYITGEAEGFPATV

[3] = molecular target: T3, Muscarinic acetylcholine receptor M5 (Homo sapiens, UniProt P08912)
T3 sequence (P08912 whole entry): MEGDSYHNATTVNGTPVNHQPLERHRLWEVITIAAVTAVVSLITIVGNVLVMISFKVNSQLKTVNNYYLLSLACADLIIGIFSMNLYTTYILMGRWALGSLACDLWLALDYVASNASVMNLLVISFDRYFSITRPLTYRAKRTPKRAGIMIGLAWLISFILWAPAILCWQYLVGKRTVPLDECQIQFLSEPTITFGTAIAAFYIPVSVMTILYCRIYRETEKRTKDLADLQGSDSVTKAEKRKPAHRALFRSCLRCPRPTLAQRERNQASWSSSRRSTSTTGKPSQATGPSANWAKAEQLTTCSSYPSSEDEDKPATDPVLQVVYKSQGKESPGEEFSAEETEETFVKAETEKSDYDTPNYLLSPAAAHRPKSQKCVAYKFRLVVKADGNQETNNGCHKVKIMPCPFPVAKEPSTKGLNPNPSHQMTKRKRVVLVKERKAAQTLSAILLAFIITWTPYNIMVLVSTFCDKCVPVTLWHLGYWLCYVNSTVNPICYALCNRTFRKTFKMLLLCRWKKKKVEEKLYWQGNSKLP

Glucocorticoid receptor = molecular target: T4, Glucocorticoid receptor (Homo sapiens, UniProt P04150); type: functional
T4 sequence (P04150 whole entry): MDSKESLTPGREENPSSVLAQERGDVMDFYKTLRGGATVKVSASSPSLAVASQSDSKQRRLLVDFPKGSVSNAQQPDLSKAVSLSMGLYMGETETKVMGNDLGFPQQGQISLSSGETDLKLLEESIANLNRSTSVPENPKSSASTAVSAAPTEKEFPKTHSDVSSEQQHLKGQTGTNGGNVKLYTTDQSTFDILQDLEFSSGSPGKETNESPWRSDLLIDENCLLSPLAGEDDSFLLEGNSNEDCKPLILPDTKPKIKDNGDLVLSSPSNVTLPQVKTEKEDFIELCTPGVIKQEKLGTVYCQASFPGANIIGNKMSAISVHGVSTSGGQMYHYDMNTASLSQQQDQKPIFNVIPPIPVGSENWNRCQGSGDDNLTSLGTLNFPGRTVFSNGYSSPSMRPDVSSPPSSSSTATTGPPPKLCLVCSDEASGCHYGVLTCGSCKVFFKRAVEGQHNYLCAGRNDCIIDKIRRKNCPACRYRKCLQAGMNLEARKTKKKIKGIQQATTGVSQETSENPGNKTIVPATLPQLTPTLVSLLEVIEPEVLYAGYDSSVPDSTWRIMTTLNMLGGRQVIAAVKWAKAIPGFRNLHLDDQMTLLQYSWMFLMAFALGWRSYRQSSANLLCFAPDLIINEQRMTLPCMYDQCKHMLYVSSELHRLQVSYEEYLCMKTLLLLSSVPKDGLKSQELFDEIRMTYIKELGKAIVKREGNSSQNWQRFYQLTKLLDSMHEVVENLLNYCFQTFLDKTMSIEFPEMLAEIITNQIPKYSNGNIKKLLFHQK

Substance-P receptor = Substance-P receptor (Homo sapiens, UniProt P25103)
[4] = molecular target: Gamma-aminobutyric acid type B receptor subunit 1 (Homo sapiens, UniProt Q9UBS5)
Cannabinoid receptor 1 = Cannabinoid receptor 1 (Homo sapiens, UniProt P21554); type: functional
D(1A) dopamine receptor [5] = molecular target: T5, D(1A) dopamine receptor (Homo sapiens, UniProt P21728); type: functional, cell-based
[6] = molecular target: Voltage-dependent L-type calcium channel subunit alpha-1C (Homo sapiens, UniProt Q13936); type: functional, cell-based
[7] = molecular target: Epidermal growth factor receptor (Homo sapiens, UniProt P00533); type: functional
[8] = molecular target: T1, Alpha-1A adrenergic receptor; remark: listed apart in the source
D(1A) dopamine receptor [9] = molecular target: T5, D(1A) dopamine receptor
Also: assay procedure not described here.

Chain of Synaptic vesicular amine transporter (Q01827 whole entry): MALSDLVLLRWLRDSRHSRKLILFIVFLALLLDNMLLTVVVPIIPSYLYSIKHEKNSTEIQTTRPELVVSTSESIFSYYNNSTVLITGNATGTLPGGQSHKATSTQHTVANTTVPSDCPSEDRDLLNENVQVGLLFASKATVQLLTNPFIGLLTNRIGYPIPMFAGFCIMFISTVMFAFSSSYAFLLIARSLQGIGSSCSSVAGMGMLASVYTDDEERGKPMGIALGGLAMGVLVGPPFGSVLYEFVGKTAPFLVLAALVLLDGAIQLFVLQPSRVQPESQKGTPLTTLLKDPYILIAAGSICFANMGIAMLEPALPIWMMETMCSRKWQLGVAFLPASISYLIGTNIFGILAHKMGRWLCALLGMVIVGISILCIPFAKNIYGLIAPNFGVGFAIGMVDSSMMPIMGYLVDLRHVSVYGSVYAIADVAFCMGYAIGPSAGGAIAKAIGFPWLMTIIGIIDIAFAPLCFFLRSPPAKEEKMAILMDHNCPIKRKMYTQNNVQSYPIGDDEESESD
T5 sequence (P21728 whole entry): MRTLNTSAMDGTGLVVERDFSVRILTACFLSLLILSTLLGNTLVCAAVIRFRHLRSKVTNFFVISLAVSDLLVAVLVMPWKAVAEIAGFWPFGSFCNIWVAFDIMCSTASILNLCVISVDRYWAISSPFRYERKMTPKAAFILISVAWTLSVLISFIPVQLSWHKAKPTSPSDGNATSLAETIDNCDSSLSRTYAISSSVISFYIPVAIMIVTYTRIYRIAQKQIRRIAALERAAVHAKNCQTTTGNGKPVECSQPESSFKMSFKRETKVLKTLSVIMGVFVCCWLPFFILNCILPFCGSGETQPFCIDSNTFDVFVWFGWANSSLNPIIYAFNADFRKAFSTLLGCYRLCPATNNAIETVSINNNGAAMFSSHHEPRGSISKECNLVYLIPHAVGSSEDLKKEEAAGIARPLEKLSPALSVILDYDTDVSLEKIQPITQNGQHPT
Chain of Gamma-aminobutyric acid type B receptor subunit 1 (Q9UBS5 whole entry): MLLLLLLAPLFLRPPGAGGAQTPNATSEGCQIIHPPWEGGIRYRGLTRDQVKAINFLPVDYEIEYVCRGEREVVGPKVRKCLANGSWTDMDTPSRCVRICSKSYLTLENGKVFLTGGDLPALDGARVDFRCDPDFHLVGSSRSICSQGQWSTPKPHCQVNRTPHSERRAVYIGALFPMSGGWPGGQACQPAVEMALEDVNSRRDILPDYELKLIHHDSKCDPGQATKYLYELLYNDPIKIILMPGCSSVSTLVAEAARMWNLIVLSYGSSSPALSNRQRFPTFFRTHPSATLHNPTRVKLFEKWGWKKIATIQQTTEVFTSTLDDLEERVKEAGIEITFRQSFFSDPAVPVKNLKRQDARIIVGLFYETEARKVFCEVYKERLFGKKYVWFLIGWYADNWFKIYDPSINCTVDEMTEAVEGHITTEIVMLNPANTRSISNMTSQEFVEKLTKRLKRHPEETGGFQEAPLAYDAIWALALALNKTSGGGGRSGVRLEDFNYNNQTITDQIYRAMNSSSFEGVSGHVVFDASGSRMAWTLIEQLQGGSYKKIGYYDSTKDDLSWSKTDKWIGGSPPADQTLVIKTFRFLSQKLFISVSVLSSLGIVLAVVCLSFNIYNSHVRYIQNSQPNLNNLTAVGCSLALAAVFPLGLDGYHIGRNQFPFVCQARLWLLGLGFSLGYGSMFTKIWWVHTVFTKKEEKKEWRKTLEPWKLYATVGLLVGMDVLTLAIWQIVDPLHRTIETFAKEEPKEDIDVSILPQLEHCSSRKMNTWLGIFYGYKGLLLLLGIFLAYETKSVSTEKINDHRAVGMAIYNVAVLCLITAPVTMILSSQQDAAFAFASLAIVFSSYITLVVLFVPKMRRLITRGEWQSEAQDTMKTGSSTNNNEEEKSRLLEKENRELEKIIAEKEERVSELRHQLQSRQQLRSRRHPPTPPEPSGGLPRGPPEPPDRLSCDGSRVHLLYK
Chain of Cannabinoid receptor 1 (P21554 whole entry): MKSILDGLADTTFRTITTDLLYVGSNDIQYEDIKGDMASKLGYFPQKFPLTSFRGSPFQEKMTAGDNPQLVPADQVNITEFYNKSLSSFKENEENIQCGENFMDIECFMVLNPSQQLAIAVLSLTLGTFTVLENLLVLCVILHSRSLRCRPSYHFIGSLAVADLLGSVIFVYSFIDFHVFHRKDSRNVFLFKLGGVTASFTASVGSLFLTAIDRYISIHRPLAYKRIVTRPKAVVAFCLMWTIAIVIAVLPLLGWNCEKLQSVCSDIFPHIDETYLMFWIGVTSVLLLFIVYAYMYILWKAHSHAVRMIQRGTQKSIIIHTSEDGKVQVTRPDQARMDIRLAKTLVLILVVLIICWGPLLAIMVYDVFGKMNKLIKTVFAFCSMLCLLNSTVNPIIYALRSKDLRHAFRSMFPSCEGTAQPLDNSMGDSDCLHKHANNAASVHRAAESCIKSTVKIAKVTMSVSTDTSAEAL
Chain of Voltage-dependent L-type calcium channel subunit alpha-1C (Q13936 whole entry): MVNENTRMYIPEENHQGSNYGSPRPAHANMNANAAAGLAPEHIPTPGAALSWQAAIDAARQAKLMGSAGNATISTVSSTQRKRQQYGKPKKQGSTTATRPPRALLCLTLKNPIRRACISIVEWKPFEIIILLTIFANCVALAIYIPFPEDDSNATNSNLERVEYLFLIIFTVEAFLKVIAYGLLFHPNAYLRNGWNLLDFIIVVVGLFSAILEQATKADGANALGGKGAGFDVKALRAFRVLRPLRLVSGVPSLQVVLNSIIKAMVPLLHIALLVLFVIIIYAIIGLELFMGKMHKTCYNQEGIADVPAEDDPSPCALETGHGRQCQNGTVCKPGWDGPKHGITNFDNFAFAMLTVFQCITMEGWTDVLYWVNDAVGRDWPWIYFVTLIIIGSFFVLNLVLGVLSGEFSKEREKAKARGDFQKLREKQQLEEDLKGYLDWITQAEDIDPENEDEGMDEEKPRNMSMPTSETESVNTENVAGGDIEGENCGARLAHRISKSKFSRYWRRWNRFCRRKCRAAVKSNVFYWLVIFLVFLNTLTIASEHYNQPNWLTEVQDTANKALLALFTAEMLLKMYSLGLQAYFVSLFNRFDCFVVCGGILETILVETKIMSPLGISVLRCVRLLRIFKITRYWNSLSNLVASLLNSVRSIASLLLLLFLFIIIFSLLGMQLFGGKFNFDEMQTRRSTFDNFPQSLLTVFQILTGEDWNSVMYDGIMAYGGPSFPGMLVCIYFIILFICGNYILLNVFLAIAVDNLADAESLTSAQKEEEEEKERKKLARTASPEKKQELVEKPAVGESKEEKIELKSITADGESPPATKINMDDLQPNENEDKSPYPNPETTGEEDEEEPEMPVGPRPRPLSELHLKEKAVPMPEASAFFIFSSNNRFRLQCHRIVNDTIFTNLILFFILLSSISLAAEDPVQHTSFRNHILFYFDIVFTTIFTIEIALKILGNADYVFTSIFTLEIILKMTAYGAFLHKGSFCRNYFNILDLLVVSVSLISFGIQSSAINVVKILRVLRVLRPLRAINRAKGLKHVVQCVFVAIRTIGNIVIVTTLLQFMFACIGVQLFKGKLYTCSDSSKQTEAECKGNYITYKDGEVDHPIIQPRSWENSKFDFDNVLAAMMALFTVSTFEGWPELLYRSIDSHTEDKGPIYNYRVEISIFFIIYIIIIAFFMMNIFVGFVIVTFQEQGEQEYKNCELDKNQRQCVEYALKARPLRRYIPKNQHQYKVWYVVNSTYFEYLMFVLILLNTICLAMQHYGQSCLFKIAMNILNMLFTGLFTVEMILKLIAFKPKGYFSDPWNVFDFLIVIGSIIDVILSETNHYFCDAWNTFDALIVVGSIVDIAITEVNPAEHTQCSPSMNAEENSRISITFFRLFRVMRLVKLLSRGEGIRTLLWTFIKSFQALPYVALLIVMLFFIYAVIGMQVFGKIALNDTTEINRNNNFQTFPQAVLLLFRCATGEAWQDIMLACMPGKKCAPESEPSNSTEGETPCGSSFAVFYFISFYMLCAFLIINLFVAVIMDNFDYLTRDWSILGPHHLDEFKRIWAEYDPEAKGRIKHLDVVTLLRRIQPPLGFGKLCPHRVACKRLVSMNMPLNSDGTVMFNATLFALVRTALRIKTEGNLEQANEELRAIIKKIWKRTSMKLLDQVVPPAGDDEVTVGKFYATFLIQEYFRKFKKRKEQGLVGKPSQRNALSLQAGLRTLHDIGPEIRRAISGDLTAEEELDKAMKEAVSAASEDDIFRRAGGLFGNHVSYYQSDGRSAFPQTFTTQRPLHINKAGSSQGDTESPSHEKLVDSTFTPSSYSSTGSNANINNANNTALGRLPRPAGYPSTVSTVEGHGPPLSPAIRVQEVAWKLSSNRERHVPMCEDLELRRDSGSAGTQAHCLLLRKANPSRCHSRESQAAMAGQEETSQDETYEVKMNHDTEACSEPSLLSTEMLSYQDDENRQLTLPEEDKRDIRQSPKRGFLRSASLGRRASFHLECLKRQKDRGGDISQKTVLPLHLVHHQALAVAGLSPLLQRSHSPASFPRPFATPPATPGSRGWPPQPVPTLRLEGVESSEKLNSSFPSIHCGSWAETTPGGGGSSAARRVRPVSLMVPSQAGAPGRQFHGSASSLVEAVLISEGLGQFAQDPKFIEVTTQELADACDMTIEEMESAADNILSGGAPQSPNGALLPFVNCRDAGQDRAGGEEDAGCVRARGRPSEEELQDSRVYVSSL
Chain of Substance-P receptor (P25103 whole entry): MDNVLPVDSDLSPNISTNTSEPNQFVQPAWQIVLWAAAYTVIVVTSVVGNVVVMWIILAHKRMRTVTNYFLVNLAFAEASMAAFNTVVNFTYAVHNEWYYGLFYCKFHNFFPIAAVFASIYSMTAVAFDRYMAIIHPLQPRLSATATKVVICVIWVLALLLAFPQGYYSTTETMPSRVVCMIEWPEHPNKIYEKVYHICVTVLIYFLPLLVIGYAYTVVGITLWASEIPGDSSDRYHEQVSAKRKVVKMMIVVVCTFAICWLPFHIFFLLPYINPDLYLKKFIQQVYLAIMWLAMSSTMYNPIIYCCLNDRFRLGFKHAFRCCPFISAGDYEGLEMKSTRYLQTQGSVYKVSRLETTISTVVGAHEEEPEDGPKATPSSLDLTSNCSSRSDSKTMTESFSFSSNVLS

CC(C)C[C@H](NC(=O)CNC(=O)c1cc(Cl)ccc1Cl)B(O)O [IXAZOMIB]
AC50 [1]: > 30 µM

C=CC[C@@H]1/C=C(\C)C[C@H](C)C[C@H](OC)[C@H]2O[C@@](O)(C(=O)C(=O)N3CCCC[C@H]3C(=O)O[C@H](/C(C)=C/[C@@H]3CC[C@@H](O)[C@H](OC)C3)[C@H](C)[C@@H](O)CC1=O)[C@H](C)C[C@@H]2OC [TACROLIMUS ANHYDROUS]
AC50 [2]: > 10 µM
AC50 (Estrogen receptor): > 30 µM
AC50 [3]: > 10 µM
AC50 (Glucocorticoid receptor): > 30 µM
AC50 (Substance-P receptor): > 10 µM
AC50 [4]: > 10 µM
AC50 (Cannabinoid receptor 1): > 10 µM
AC50 (D(1A) dopamine receptor [5]): > 30 µM
AC50 [6]: > 50 µM
AC50 [7]: > 30 µM

OC[C@H]1O[C@@H](c2ccc(Cl)c(Cc3ccc(O[C@H]4CCOC4)cc3)c2)[C@H](O)[C@@H](O)[C@@H]1O [EMPAGLIFLOZIN]
AC50 [1]: 16 µM

CC(C)(O)CNc1nc(Nc2ccnc(C(F)(F)F)c2)nc(-c2cccc(C(F)(F)F)n2)n1 [ENASIDENIB]
AC50 [8]: > 30 µM
AC50 (D(1A) dopamine receptor [9]): > 30 µM
AC50 [1]: 1.8 µM

Source: ChEMBL document CHEMBL5291721, “A preclinical secondary pharmacology resource illuminates target-adverse drug reaction associations of marketed drugs” (Nat Commun, 2023)
